For series [1], the system named is CCK-A receptors. Conditions: in words; cited from earlier work.
The subject of series [2] is CCK-B receptors. As to conditions: in words; cited from earlier work.
Series [3] has as its system stomach gastrin receptor. As to conditions: in words; cited from earlier work.
The conditions of series [4]: rat, brain synaptosomal fraction; cited from earlier work.
Series [5] deals with T1, CCK receptor (pancreas) (Rattus norvegicus, UniProt P30551).
T1 construct: The whole pancreas was dissected free of fat tissue and was homogenized; from tissue; host or cells: rat whole pancreas, membrane preparation
T1 sequence (P30551 1-444): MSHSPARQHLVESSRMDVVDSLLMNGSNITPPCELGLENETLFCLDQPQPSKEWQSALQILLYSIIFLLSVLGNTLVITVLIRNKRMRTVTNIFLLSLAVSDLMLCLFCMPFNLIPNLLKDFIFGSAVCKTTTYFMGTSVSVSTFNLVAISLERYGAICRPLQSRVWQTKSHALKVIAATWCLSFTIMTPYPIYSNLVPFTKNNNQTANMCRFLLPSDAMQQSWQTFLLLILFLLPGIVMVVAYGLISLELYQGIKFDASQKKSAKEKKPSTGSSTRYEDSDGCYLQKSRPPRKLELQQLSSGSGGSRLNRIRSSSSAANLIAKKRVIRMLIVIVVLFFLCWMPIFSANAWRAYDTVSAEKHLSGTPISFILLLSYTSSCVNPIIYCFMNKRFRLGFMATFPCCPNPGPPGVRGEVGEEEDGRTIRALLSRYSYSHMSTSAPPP
Briefly: CCK receptor binding (Pancreas), inhibition of 125I-CCK binding. On the set-up: species or system rat (male Sprague-Dawley). Conditions: 125I-CCK-33, 37° C., 30 minutes, read-out: IC^50 ^125 I-CCK Pancreas. The method, then:
1. CCK Receptor Binding (Pancreas)
CCK-33 was radiolabeled with ^125 I-Bolton Hunter reagent (2000 Ci/mmole) as described by Sankara et al. (J. Biol. Chem. 254: 9349-9351, 1979). Receptor binding was performed according to Innis and Snyder (Proc. Natl. Acad. Sci. 77: 6917-6921, 1980) with the minor modification of adding the additional protease inhibitors, phenyl-methane sulfonyl fluoride and o-phenanthroline. The latter two compounds have no effect on the ^125 I-CCK receptor binding assay.
Male Sprague-Dawley rats (200-350g) were sacrificed by decapitation. The whole pancreas was dissected free of fat tissue and was homogenized in 20 volumes of ice-cold 50 mM, Tris HCl (pH 7.7 at 25° C.) with a Brinkmann Polytron PT 10. The homogenates were centrifuged at 48,000 g for 10 min. Pellets were resuspended in Tris Buffer, centrifuged as above and resuspended in 200 volumes of binding assay buffer (50 mM Tris HCl, pH 7.7 at 25° C., 5 mM dithiothrietol, 0.1 mM bacitracin, 1.2 mM phenylmethane sulfonyl fluoride and 0.5 mM o-phenanthroline). […] All assays were run in duplicate or triplicate. The reaction mixtures were incubated at 37° C. for 30 minutes and centrifuged in a Beckman Microfuge (4 minutes) immediately after adding 1 ml of ice-cold incubation buffer. The supernatant was aspirated and discarded, pellets were counted with a Beckman gamma 5000. For Scatchard analysis (Ann. N.Y. Acad. Sci. 51: 660, 1949), ^125 I-CCK-33 was progressively diluted with increasing concentrations of CCK-33.

The target in series [6] is T2, CCK receptor (brain) (Cavia porcellus, UniProt H0VZC5).
T2 construct: Cerebral cortex was dissected and used as a receptor source; from tissue; host or cells: guinea pig cerebral cortex, membrane preparation
T2 sequence (H0VZC5 entry or part of it): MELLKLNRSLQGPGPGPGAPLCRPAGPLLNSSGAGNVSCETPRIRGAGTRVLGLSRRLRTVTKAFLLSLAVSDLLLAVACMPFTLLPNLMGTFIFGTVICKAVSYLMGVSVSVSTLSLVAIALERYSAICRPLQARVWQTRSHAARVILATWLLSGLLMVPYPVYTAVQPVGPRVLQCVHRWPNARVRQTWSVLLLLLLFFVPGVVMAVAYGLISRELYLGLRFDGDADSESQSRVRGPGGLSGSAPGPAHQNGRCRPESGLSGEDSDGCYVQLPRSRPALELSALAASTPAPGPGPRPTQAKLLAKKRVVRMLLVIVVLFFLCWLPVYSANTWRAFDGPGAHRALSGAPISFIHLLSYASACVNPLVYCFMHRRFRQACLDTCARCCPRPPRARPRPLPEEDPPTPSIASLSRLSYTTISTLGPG
Briefly: CCK receptor binding (Brain), inhibition of 125I-CCK binding. Also on record: species or system guinea pig (male Hartley). Conditions: guinea pig cerebral cortex, 125I-CCK-33, 25° C., 2 hours; read-out: IC^50 ^125 I-CCK Brain. The method, then: 2. CCK Receptor Binding (Brain)
CCK-33 was radiolabeled and the binding was performed according to the description for the pancreas method with modifications according to Saito et al., J. Neurochem. 37, 483-490, 1981.
Male Hartley guinea pigs (300-500 g) were sacrificed by decapitation and the brains were removed and placed in ice-cold 50 mM, Tris HCl plus 7.58 g/l Trizma-7.4 (pH 7.4 at 25° C.). Cerebral cortex was dissected and used as a receptor source. Each gram of fresh guinea pig brain tissue was homogenized in 10 ml of Tris Trizma buffer with a Brinkman polytron PT-10. The homogenates were centrifuged at 42,000 g for 15 min. […] All assays were run in duplicate or triplicate. The reaction mixtures were incubated at 25° C. for 2 hours and centrifuged in a Beckman Microfuge (4 minutes) immediately after adding 1 ml of ice-cold incubation buffer. The supernatant was aspirated and discarded, pellets were counted with a Beckman gamma 5000.

In series [7] the target is T3, gastrin receptor (Cavia porcellus, UniProt H0VZC5).
T3 construct: Guinea pig gastric mucosal glands were prepared by the procedure of Berglingh and Obrink; from tissue; host or cells: guinea pig gastric mucosal glands
T3 sequence (H0VZC5 entry or part of it): as above
Briefly: Gastrin receptor binding in guinea pig gastric glands. Also on record: species or system guinea pig (male Hartley). Conditions: read-out: IC^50 Gastrin. The method, then:
Gastrin antagonist activity of compounds of Formula I is determined using the following assay: […]
Gastrin Receptor Binding in Guinea Pig Gastric Glands Preparation of guinea pig gastric mucosal glands
Guinea pig gastric mucosal glands were prepared by the procedure of Berglingh and Obrink Acta Physiol. Scand. 96: 150 (1976) with a slight modification according to Praissman et al. C. J. Receptor Res. 3: (1983). Gastric mucosa from guinea pigs (300-500 g body weight, male Hartley) were washed thoroughly and minced with fine scissors in standard buffer consisting of the following: 130 mM NaCl, 12 mM NaHCO3, 3 mM NaH2 PO4, 3 mM K2 HPO4, 2 mM MgSO4, 1 mM CaCl2, 5 mM glucose and 4 mM L-glutamine, 25 mM HEPES at pH 7.4. The minced tissues were washed and then incubated in a 37° C. shaker bath for 40 minutes with the buffer containing 0.1% collagenase and 0.1% BSA and bubbled with 95% O2 and 5% CO2. The tissues were passed twice through a 5 ml glass syringe to liberate the gastric glands, and then filtered through 200 mesh nylon. The filtered glands were centrifuged at 270 g for 5 minutes and washed twice by resuspension and centrifugation.

As to `CSCC[C@H](NC(=O)[C@@H](N)Cc1c[nH]c2ccccc12)C(=O)N[C@@H](CC(=O)O)C(=O)N[C@@H](Cc1ccccc1)C(N)=O` [CCK-4], the “affinity for CCK-A receptors” value in series [1] is given as “lower affinity”. Also, the “affinity for CCK-B receptors” value in series [2] is given as “high affinity”. The “potency at stomach gastrin receptor” value in series [3] is recorded as “minimum fully potent CCK sequence”.
On to `CSCC[C@H](NC(=O)[C@H](Cc1ccc(O)cc1)NC(=O)[C@@H](N)CC(=O)O)C(=O)NCC(=O)N[C@@H](Cc1c[nH]c2ccccc12)C(=O)N[C@@H](CCSC)C(=O)N[C@@H](CC(=O)O)C(=O)N[C@@H](Cc1ccccc1)C(N)=O` [CCK-8d], for which the “affinity for CCK-A receptors” value in series [1] was “lower affinity”.
`CSCC[C@H](NC(=O)[C@H](Cc1ccc(OS(=O)(=O)O)cc1)NC(=O)[C@@H](N)CC(=O)O)C(=O)NCC(=O)N[C@@H](Cc1c[nH]c2ccccc12)C(=O)N[C@@H](CCSC)C(=O)N[C@@H](CC(=O)O)C(=O)N[C@@H](Cc1ccccc1)C(N)=O` [CCK-8s, H-Asp-Tyr(SO3 H)-Met-Gly-Trp-Met-Asp-Phe-NH2]: in series [4], the half-life entry is reported as “less than 1 hour”. Besides, in series [1], the “affinity for CCK-A receptors” value is listed as “high affinity”. In addition, the “affinity for CCK-B receptors” value in series [2] is given as “high affinity”.
As for `CSC1=Nc2ccccc2C(c2ccccc2F)=N[C@@H]1Cc1c[nH]c2ccccc12` [Example 2, 2-Methylthio-3(R)-(3'-indolyl)methyl-5-(2'-fluorophenyl)2H-1,4-benzodiazepine], the IC50 in series [5] was 17000 nM.
With `Cc1cccc(NC(=O)NC2N=C(c3ccccc3)c3ccccc3N=C2NCC(=O)N2CCCC2)c1` (stereo not shown) [Example 11, 1-[[(3-((3-Methylphenylaminocarbonyl)amino)-5-phenyl-3H-1,4-benzodiazepin-2-yl)amino]acetyl]-pyrrolidine], the IC50 in series [5] was found to be 1100 nM; in series [6], 5.9 nM; in series [7], 20 nM.
The like results for `Cc1cccc(NC(=O)NC2N=C(c3ccccc3)c3ccccc3N=C2NCC(=O)N2CCN(C)CC2)c1` (stereo not shown) [Example 12, 1-Methyl-4-[[(3-((((3-methylphenyl)amino)carbonyl)amino)-5-phenyl-3H-1,4-benzodiazepin-2-yl)amino]acetyl]-piperazine] were, in that order, 1000 nM, 124 nM and 180 nM.
In the case of `CCN(CC)CCCNC1=Nc2ccccc2C(c2ccccc2)=NC1NC(=O)Nc1cccc(C)c1` (stereo not shown) [Example 13, N-[2-[((3-Diethylamino)propyl)amino]-5-phenyl-3H-1,4-benzodiazepin-3-yl]-N'-[3-methylphenyl]-urea], the IC50 was found to be 14000 nM in series [5], 78 nM in series [6] and 120 nM in series [7].
The like results for `Cc1cccc(NC(=O)NC2N=C(c3ccccc3)c3ccccc3N=C2NCCCN2CCCC2=O)c1` (stereo not shown) [Example 14, N-[3-Methylphenyl]-N'-[2-((3-(2-oxo)pyrrolidinyl)propyl)amino-5-phenyl-3H-1,4-benzodiazepin-3-yl]-urea] were, in that order, 590 nM, 15 nM and 13 nM.
For `CSCC[C@H](NC(=O)[C@H](Cc1c[nH]c2ccccc12)NC(=O)CCNC(=O)OC(C)(C)C)C(=O)N[C@@H](CC(=O)O)C(=O)N[C@@H](Cc1ccccc1)C(N)=O` [pentagastrin], the “affinity for CCK-B receptors” value in series [2] was “high affinity”.
With “gastrin: neuropeptide structurally related to cholecystokinin”, in series [1], the “affinity for CCK-A receptors” value is listed as “lower affinity”.

The values above are taken from patent US5206237A, “Benzodiazepine analogs” (Merck & Co., Inc., priority 1991, dated 1993).
